What all share (format): cell-based
Data set [1] deals with Escherichia coli ATCC 25922. Description: Micro-dilution MIC assay, E. coli. The following applies: ATCC25922, 24 h at 37 °C. The protocol: (§1) Antimicrobial activity of compounds was evaluated in vitro on eight bacterial strains (Escherichia coli ATCC 25922 (ATCC = American Type Culture Collection, Manassas, VA, USA), Pseudomonas aeruginosa ATCC 9027, Proteus hauseri ATCC 13315, Klebsiella pneumoniae ATCC 10031, Staphylococcus aureus ATCC 6538, Bacillus subtilis ATCC 6633, Clostridium sporogenes ATCC 19404 and Micrococcus luteus ATCC 10240) and three fungi (Candida albicans ATCC 10231, Saccharomyces cerevisiae ATCC 9763 and Aspergillus brasiliensis ATCC 16404).
(§2) Micro-dilution assay was used for determination of tested compounds MIC. A serial dilution method in sterile 96-well microtitre plates was performed. Fresh Mueller–Hinton broth (for bacteria) and Sabouraud dextrose broth (for fungi) were used. In sterile physiological solution, suspensions containing 1.5 × 10^8 CFU mL^−1 for bacteria and 1.5 × 10^7 CFU mL^−1 for fungi were made (according to McFarland). One hundred microliters of broth were added to each well of the plate. Stock solutions of tested compounds were made in DMSO at concentration 10 mg mL^−1, and then 100 μL of the compound stock solution was added to each well of the first column. Double dilution was made in whole row for one tested compound, and repeated for all tested compounds in other rows. Amikacin served as positive control for bacteria, while nystatin served as positive control for fungi. The solvent (DMSO) was used as the negative control. Afterwards, each well was inoculated with 10 μL of microorganism suspension. After incubation, 24 h at 37 °C for bacteria and 48 h at 25 °C for fungi, results were read. The lowest concentration where no growth of microorganism was detected represented MIC.
(In general: Broth dilution looks for growth in wells or tubes with falling amounts of substance.)

Data set [2] deals with Pseudomonas aeruginosa ATCC 9027. Description: Micro-dilution MIC assay, P. aeruginosa. The conditions noted are these: ATCC9027, 24 h at 37 °C. On the procedure:
as §1, §2

Data set [3] concerns Proteus hauseri ATCC 13315. Briefly: Micro-dilution MIC assay, P. hauseri. The conditions noted are these: ATCC13315, 24 h at 37 °C. The protocol:
as §1, §2

Data set [4] relates to Klebsiella pneumoniae ATCC 10031. Description: Micro-dilution MIC assay, K. pneumoniae. The conditions noted are these: ATCC10031, 24 h at 37 °C. The protocol:
as §1, §2

Data set [5] deals with Staphylococcus aureus ATCC 6538. Briefly: Micro-dilution MIC assay, S. aureus. The following applies: ATCC6538, 24 h at 37 °C. The protocol:
as §1, §2

Data set [6] deals with Bacillus subtilis ATCC 6633. Description: Micro-dilution MIC assay, B. subtilis. The conditions noted are these: ATCC6633, 24 h at 37 °C. On the procedure:
as §1, §2

The subject of data set [7] is Clostridium sporogenes ATCC 19404. Description: Micro-dilution MIC assay, C. sporogenes. The conditions noted are these: ATCC19404, 24 h at 37 °C. The protocol: as §1, §2
Data set [8] concerns Micrococcus luteus ATCC 10240. Description: Micro-dilution MIC assay, M. luteus. The conditions noted are these: ATCC10240, 24 h at 37 °C. The protocol: as §1, §2
Data set [9] has as its system Candida albicans ATCC 10231. Briefly: Micro-dilution MIC assay, C. albicans. On the procedure: as §1, §2
For data set [10], the system named is Saccharomyces cerevisiae ATCC 9763. Description: Micro-dilution MIC assay, S. cerevisiae. The protocol: as §1, §2
For data set [11], the system named is Aspergillus brasiliensis ATCC 16404. Description: Micro-dilution MIC assay, A. brasiliensis. The conditions noted are these: A. braziliensis, 48 h at 25 °C. On the procedure:
as §1, §2

For data set [12], the system named is SW620 (colorectal adenocarcinoma, metastatic). Briefly: MTT assay, SW620. The conditions noted are these: Homo sapiens, SW-620, 72 h. The protocol: (§3) The tested compounds were dissolved in DMSO in five, 10-fold dilutions (0.01–100 µM). The cell lines HeLa (cervical carcinoma), SW620 (colorectal adenocarcinoma, metastatic), HepG2 (hepatocellular carcinoma), CFPAC-1 (ductal pancreatic adenocarcinoma), and WI38 (human lung fibroblast cell line), were cultured as monolayers and maintained in Dulbecco’s modified Eagle medium (DMEM) supplemented with 10% fetal bovine serum (FBS), 2 mM L-glutamine, 100 U mL^−1 penicillin and 100 μg mL^−1 streptomycin in a humidified atmosphere with 5% CO2 at 37 °C.
(§4) The MTT assay was used for evaluation of effects of tested compounds on viability of carcinoma and control cell lines. About 5000 cells per well were seeded onto a series of standard 96-well plates on day 0. Test agents were then added and incubated for further 72 h. Working dilutions of tested compounds were freshly prepared in the growth medium, on the day of testing. The solvent (DMSO) was also tested for eventual inhibitory activity by adjusting its concentration to be the same as in the working concentrations (DMSO concentration never exceeded 0.1%). After 72 h of incubation, the cell growth rate was evaluated by performing the MTT assay: experimentally determined absorbance values were transformed into a cell percentage growth (PG) using the formulas proposed by NIH and described previously. This method directly relies on control cells number at the day of assay because it compares the growth of treated cells with the growth of untreated cells in control wells on the same plate, the results are therefore a percentile difference from the calculated expected value.
(§5) If, however, all of the tested concentrations produce PGs exceeding the respective reference level of effect (e.g., PG value of 50) for a given cell line, the highest tested concentration is assigned as the default value (in the screening data report that default value is preceded by a “>” sign). Each test point was performed in quadruplicate in three individual experiments. The results were statistically analyzed (Analysis of variance (ANOVA), Tukey post-hoc test at p < 0.05). Finally, the effects of the tested substances were evaluated by plotting the mean percentage growth for each cell type in comparison to control on dose response graphs.
For orientation: Formazan colour is commonly taken as a measure of viable cells.

The subject of data set [13] is CFPAC-1 (ductal pancreatic adenocarcinoma). Description: MTT assay, CFPAC-1. The following applies: Homo sapiens, 72 h. The protocol:
as §3, §4, §5

Data set [14] relates to HepG2 (hepatocellular carcinoma). Briefly: MTT assay, HepG2. The following applies: Homo sapiens, 72 h. On the procedure:
as §3, §4, §5

In data set [15] the test system is HeLa (cervical carcinoma). Description: MTT assay, HeLa. The conditions noted are these: Homo sapiens, 72 h. On the procedure:
as §3, §4, §5

Data set [16] is described as follows: MTT assay, WI38 healthy control. The following applies: WI38 human lung fibroblast cells, WI38 healthy control human fibroblast cell line. The protocol: as §3, §4, §5
[17] abbreviates: Candida albicans, ATCC10231, 48 h at 25 °C, read-out: MIC.
[18] abbreviates: Saccharomyces cerevisiae, ATCC9763, 48 h at 25 °C, read-out: MIC.
Setting [19] is: Aspergillus brasiliensis, ATCC16404, read-out: MIC.

Experimental findings from publication PMC6321291, “Synthesis, Biological Evaluation and Docking Studies of Benzoxazoles Derived from Thymoquinone” (Molecules, 2018) are described below.

≈ marks a conversion by molar mass, not a printed value. Like-named read-outs stand apart in the source and are kept apart here.

The term MIC denotes the least concentration at which growth counts as inhibited. On to `NCC[C@H](O)C(=O)N[C@@H]1C[C@H](N)[C@@H](O[C@H]2O[C@H](CN)[C@@H](O)[C@H](O)[C@H]2O)[C@H](O)[C@H]1O[C@H]1O[C@H](CO)[C@@H](O)[C@H](N)[C@H]1O` [Amikacin, amikacin], for which the MIC worked out at 8.54 µM (≈ 5 µg/mL) in data set [1]; 85.4 µM (≈ 50 µg/mL) in data set [2]; 11.9 µM (≈ 7 µg/mL) in data set [3]; 13.7 µM (≈ 8.03 µg/mL) in data set [4]; 18.8 µM (≈ 11 µg/mL) in data set [5]; 71.7 µM (≈ 42 µg/mL) in [6]. Moreover, the MIC in data set [7] was determined as 25.6 µM (≈ 15 µg/mL); in data set [8] it was 3.42 µM (≈ 2 µg/mL).

`C[C@@H]1[C@H](O)[C@@H](C)/C=C/C=C/CC/C=C/C=C/C=C/C=C/C(O[C@H]2O[C@H](C)[C@@H](O)[C@H](N)[C@@H]2O)CC2O[C@](O)(CC(O)C(O)CCC(O)CC(O)CC(O)CC(=O)O[C@H]1C)CC(O)C2C(=O)O` (stereo partly shown) [Nystatin, nystatin]: the MIC in [9] (48 h at 25 °C) was found to be 2700 µM (≈ 2500 µg/mL); in [10] (48 h at 25 °C), 1350 µM (≈ 1250 µg/mL); in [11], 1350 µM (≈ 1250 µg/mL).

One may read the IC50 as the concentration that inhibits the measured activity by half. Read a high IC50 as weaker potency in that assay. Consider `CC1=C(N)C(=O)C(C(C)C)=CC1=O` [ATQ, 3-Aminothymoquinone], for which the MIC in data set [1] was determined as 112 µM (≈ 20 µg/mL); in data set [2] it was 218 µM (≈ 39 µg/mL); in [3], 218 µM (≈ 39 µg/mL); in data set [4] it was 435 µM (≈ 78 µg/mL); in [5], 112 µM (≈ 20 µg/mL); in data set [6], 218 µM (≈ 39 µg/mL). Also, the MIC turned out to be 435 µM (≈ 78 µg/mL) in data set [7]; 59.7 µM (≈ 10.7 µg/mL) in data set [8]; 1750 µM (≈ 314 µg/mL) in data set [9] (setting [17]); 220 µM (≈ 39.4 µg/mL) in [10] (setting [18]); 880 µM (≈ 158 µg/mL) in [11] (setting [19]). The IC50 in data set [12] came to 25.8 µM; in data set [13], 30.9 µM; in data set [14], 8.26 µM; in [15], 15.7 µM. The same molecule returned an IC50 at 72 h in data set [16] of 9.41 µM.

Regarding `CC1=CC(=O)C(C(C)C)=CC1=O` [TQ, Thymoquinone], the MIC in data set [1] was determined as 29.8 µM (≈ 4.9 µg/mL); in data set [2] it was 59.7 µM (≈ 9.8 µg/mL); in [3], 29.8 µM (≈ 4.9 µg/mL); in [4] it was 59.7 µM (≈ 9.8 µg/mL); in [5] it was 29.8 µM (≈ 4.9 µg/mL); in [6], 59.7 µM (≈ 9.8 µg/mL). Besides, the MIC in data set [7] came out at 122 µM (≈ 20 µg/mL); in data set [8] it was 59.7 µM (≈ 9.8 µg/mL); in data set [9] (setting [17]), 3810 µM (≈ 626 µg/mL); in data set [10] (setting [18]), 1900 µM (≈ 312 µg/mL); in data set [11] (setting [19]), 3810 µM (≈ 626 µg/mL). For the same molecule, the concentration for half-maximal inhibition (IC50) in data set [12] turned out to be 40 µM; in data set [13] it was 48.3 µM; in data set [14] it was 24 µM; in data set [15], 28.9 µM. Further, in data set [16], the IC50 at 72 h is 19.8 µM.
